In the experiment the test system is porcine spermatozoa. Kind of experiment: Progressive motility / viability of gametes incubated in fertilizing solution with FB-sp (CASA method, optical microscopy). Format: cell-based. As for the experimental part: A test of the progressive motility of gametes incubated in fertilizing solution added with the FB-sp bio-stabiliser polypeptide was performed. Progressive gametes are spermatozoa that have normal mobility capacity and are suitable for fertilizing.
It can be seen that the incubation of spermatozoa of porcine boars with FB-sp (●) (10 μM) preserves progressive motility up to 85% of spermatozoa for a period of 7 days, while the control (▪) without stabiliser decreases to a value of 70% on day 7, the difference increases over the days.

As to “RPGLPVFSPL (Spermatic biostabilizer FB-sp) [polypeptide sperm stabiliser of 10 amino acids: Arg, Pro, Gly, Leu, Pro, Val, Phe, Ser, Pro, Leu]”, the “progressive motility of spermatozoa preserved” value (FB-sp 10 μM, 17° C., period of 7 days, porcine boar spermatozoa) was “up to 85%”. The survival entry (extender with FB-sp added, after 7 days) was “over 65%”.

For the origin of these results see patent US20200045956A1, “POLYPEPTIDE SPERM STABILISER FOR SEMEN USED IN ARTIFICIAL INSEMINATION” (UNIVERSIDAD DE LA FRONTERA, priority 2017, published 2020).
